Our source for the IC50 values is ChEMBL document CHEMBL1123787, “Radioiodinated p-iodoclonidine: a high-affinity probe for the alpha 2-adrenergic receptor” (J Med Chem, 1987).

The assay addresses T1, Adrenergic receptor alpha-2 (Homo sapiens, UniProt P08913+P18825+P18089).
T1 sequence (P08913 whole entry): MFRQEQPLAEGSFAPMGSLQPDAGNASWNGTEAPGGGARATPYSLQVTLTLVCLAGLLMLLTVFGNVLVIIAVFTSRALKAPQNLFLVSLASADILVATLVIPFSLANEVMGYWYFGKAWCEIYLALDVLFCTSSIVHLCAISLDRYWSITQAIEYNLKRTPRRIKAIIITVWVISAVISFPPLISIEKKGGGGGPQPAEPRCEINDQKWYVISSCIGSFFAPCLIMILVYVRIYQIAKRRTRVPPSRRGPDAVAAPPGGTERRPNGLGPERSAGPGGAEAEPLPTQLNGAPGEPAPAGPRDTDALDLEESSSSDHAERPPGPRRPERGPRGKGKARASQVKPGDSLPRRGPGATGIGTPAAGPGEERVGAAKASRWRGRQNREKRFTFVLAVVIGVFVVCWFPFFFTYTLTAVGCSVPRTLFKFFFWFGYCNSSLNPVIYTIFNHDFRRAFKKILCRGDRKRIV
T1 sequence (P18825 whole entry): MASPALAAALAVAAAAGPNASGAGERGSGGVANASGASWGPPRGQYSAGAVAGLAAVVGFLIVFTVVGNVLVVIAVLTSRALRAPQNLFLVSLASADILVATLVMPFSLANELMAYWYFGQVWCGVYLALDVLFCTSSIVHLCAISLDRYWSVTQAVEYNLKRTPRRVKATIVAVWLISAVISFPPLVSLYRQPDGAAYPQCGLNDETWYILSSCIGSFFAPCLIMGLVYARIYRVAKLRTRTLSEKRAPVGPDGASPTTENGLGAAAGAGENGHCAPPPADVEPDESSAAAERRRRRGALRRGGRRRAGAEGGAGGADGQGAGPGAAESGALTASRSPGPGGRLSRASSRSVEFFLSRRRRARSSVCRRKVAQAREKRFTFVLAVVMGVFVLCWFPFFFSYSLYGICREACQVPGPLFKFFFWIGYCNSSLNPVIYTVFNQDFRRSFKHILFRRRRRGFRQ
T1 sequence (P18089 whole entry): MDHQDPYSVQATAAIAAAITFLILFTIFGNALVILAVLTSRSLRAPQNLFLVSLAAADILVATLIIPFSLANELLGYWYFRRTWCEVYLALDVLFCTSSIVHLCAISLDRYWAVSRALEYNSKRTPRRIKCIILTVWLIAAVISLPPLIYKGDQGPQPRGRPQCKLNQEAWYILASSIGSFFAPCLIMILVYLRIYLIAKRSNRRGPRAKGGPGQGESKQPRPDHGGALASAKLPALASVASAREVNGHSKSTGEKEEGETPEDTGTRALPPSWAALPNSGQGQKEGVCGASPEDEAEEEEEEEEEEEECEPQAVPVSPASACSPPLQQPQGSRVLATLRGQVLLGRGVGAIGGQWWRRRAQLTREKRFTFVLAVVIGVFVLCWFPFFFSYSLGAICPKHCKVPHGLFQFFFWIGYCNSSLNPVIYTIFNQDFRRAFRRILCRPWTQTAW

`O=[N+]([O-])c1cc(Cl)c(N=C2NCCN2)c(Cl)c1` showed an IC50 of 10 µM.
As for `Clc1cc(N=NN2CCCC2)cc(Cl)c1NC1=NCCN1`, the figure is 2 µM.

By IC50 is commonly meant the concentration at which inhibition is half-maximal. Read a low IC50 as greater potency in that assay.
